# Assay results reported in patent US10125135B2, “Chemical compounds” (AstraZeneca AB, priority 2016, dated 2018).
# Columns and labels:
# [1] = biological target: ERα receptor in MCF-7 human ductal carcinoma breast cell line (Homo sapiens (Human), UniProt P03372); assay: MCF-7 ER down regulation assay (immuno-fluorescence); format: cell-based; settings: MCF-7 cells; for DC50: 18-22 hours incubation, read-out: ER down regulation IC50 value; for % downregulation (in brackets) in ER down regulation assay: >90% unless otherwise stated
# Chain of ERα receptor in MCF-7 human ductal carcinoma breast cell line (P03372 whole entry): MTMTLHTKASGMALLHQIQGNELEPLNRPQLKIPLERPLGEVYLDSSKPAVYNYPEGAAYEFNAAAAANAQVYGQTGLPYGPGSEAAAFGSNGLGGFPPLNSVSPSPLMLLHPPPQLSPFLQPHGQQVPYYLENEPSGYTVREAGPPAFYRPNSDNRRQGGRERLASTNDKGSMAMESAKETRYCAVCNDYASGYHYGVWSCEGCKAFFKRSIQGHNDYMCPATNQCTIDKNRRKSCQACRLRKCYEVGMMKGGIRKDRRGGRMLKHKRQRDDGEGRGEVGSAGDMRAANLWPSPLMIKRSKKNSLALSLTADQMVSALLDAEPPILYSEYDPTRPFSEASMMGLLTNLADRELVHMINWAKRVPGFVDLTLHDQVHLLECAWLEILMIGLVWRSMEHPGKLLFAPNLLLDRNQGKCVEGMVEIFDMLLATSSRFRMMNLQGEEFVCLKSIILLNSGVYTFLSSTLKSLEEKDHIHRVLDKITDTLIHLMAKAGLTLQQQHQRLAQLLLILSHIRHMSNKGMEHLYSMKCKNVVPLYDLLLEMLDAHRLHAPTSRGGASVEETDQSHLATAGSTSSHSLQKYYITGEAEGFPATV
# Method: MCF-7 ER Down Regulation Assay
# The ability of compounds to down-regulate Estrogen Receptor (ER) numbers was assessed in a cell based immuno-fluorescence assay using the MCF-7 human ductal carcinoma breast cell line. MCF-7 cells were revived directly from a cryovial (approx 5×10^6 cells) in Assay Medium (phenol red free Dulbecco's Modified Eagle's medium (DMEM) (Sigma D5921) containing 2mM L-Glutamine and 5% (v/v) Charcoal/Dextran treated foetal calf serum. Cells were syringed once using a sterile 18 G×1.5 inch (1.2×40 mm) broad gauge needle and cell density was measured using a Coulter Counter (Beckman). Cells were further diluted in Assay Medium to a density of 3.75×10^4 cells per mL and 40 μL per well added to transparent bottomed, black, tissue culture treated 384 well plates (Costar, No. 3712) using a Thermo Scientific Matrix WellMate or Thermo Multidrop. Following cell seeding, plates were incubated overnight at 37° C., 5% CO2 (Liconic carousel incubator). Test data was generated using the LabCyte Echo™ model 555 compound reformatter which is part of an automated workcell (Integrated Echo 2 workcell). 10 mM compound stock solutions of the test compounds were used to generate a 384 well compound dosing plate (Labcyte P-05525-CV1). […] 40 μΛ of DMSO added to wells in row P on the source plate allow for DMSO normalisation across the dose range. To dose the control wells 40 μL of DMSO was added to row O1 and 40 μL of 100 μM fulvestrant in DMSO was added to row O3 on the compound source plate. […] Compounds were dispensed onto the cell plates with a compound source plate prepared as above producing a 12 pt duplicate 3 μM to 3 pM dose range with 3 fold dilutions and one final 10 fold dilution using the Integrated Echo 2 workcell. […] Cells were fixed at room temperature for 20 mins before being washed two times with 250 μL PBS/Proclin (PBS with a Biocide preservative) using a BioTek platewasher, 40 μL of PBS/Proclin was then added to all wells and the plates stored at 4° C. The fixing method described above was carried out on the Integrated Echo 2 workcell. Immunostaining was performed using an automated AutoElisa workcell. The PBS/Proclin was aspirated from all wells and the cells permeabilised with 40 μL PBS containing 0.5% Tween™ 20 (v/v) for 1 hour at room temperature. The plates were washed three times in 250 μL of PBS/0.05% (v/v) Tween 20 with Proclin (PBST with a Biocide preservative) and then 20 μL of ERα (SP1) Rabbit monoclonal antibody (Thermofisher) 1:1000 in PBS/Tween™/3% (w/v) Bovine Serum Albumin was added. The plates were incubated overnight at 4° C. (Liconic carousel incubator) and then washed three times in 250 μL of PBS/0.05% (v/v) Tween™ 20 with Proclin (PBST). The plates were then incubated with 20 μL/well of a goat anti-rabbit IgG AlexaFluor 594 or goat anti-rabbit AlexaFluor 488 antibody (Molecular Probes) with Hoechst at 1:5000 in PBS/Tween™/3% (w/v) Bovine Serum Albumin for lhour at room temperature. The plates were then washed three times in 250 μL of PBS/0.05% (v/v) Tween™ 20 with Proclin (PBST with a Biocide preservative). 20 μL of PBS was added to each well and the plates covered with a black plate seal and stored at 4° C. before being read. Plates were read using a Cellomics Arrayscan reading the 594 nm (24 hr time point) or 488 nm (5 hr timepoint) fluorescence to measure the ERα receptor level in each well. The mean total intensity was normalized for cell number giving the total intensity per cell.
# [2] = Human hepatocyte assay (metabolic stability); format: in vitro ADME; settings: human hepatocytes, 37° C., 1.0×10^6 viable cells/mL; read-out: Clint (in vitro intrinsic clearance)
# Method: The metabolic stability of compounds in human hepatocytes was assessed using the following protocol: • 1. Prepare 10 mM stock solutions of compound and control compounds in appropriate solvent (DMSO). Place incubation medium (L-15Medium) in a 37° C. water bath, and allow warming for at least 15 minutes prior to use. • 2. Add 80 μL of acetonitrile to each well of the 96-well deep well plate (quenching plate). • 3. In a new 96-well plate, dilute the 10 mM test compounds and the control compounds to 100 μM by combining 198 μL of acetonitrile and 2 μL of 10 mM stock. • 4. Remove a vial of cryopreserved (less than −150° C.) human hepatocytes (LiverPool™ 10 Donor Human hepatocytes obtained from Celsis IVT. Chicago, Ill. (Product No. S01205)) from storage, ensuring that vials remain at cryogenic temperatures until thawing process ensues. As quickly as possible, thaw the cells by placing the vial in a 37° C. water bath and gently shaking the vials. Vials should remain in water bath until all ice crystals have dissolved and are no longer visible. After thawing is completed, spray vial with 70% ethanol, transfer the vial to a bio-safety cabinet. • 5. Open the vial and pour the contents into the 50 mL conical tube containing thawing medium. Place the 50 mL conical tube into a centrifuge and spin at 100 g for 10 minutes. […] Using Cellometer® Vision, count cells and determine the viable cell density. Cells with poor viability (<80% viability) are not acceptable for use. Dilute cells with incubation medium to a working cell density of 1.0×10^6 viable cells/mL. • 7. Transfer 247.5 μL of hepatocytes into each well of a 96-well cell culture plate. Place the plate on Eppendorf Thermomixer Comfort plate shaker to allow the hepatocytes to warm for 10 minutes. • 8. Add 2.5 μL of 100 μM test compound or control compounds into an incubation well containing cells, mix to achieve a homogenous suspension at 0.5 min, which when achieved, will define the 0.5 min time point. At the 0.5 min time, transfer 20 μL incubated mixture to wells in a “Quenching plate” followed by vortexing. • 9. Incubate the plate at 37° C. at 900 rpm on an Eppendorf Thermomixer Comfort plate shaker. At 5, 15, 30, 45, 60, 80, 100 and 120 min, mix the incubation system and transfer samples of 20 μL incubated mixture at each time point to wells in a separate “Quenching plate” followed by vortexing. • 10. Centrifuge the quenching plates for 20 minutes at 4,000 rpm. 4 different compounds are pooled into one cassette and used for LC/MS/MS analysis.
# All calculations are carried out using Microsoft Excel. Peak areas are determined from extracted ion chromatograms. In vitro intrinsic clearance (in vitro Clint, in μL/min/10^6 cells) of parent compound is determined by regression analysis of the Ln percent parent disappearance vs. time curve. The in vitro intrinsic clearance (in vitro Clint, in μL/min/10^6 cells) is determined from the slope value using the following equation and is shown in Table C:
# V=incubation volume (0.25 mL);
# N=number of hepatocytes per well (0.25×10 ^6 cells).
DC50 [1] [nM],% downregulation (in brackets) in ER down regulation assay [1] [%],Compound,hepatocyte CLint at 1 µM [2] [µL/min/1e6 cells]
0.28,86,"C[C@@H]1Cc2c(ccc3[nH]ncc23)[C@@H](c2c(F)cc(NCCN3CC(CF)C3)cc2F)N1CC(C)(C)F [Example 47, 3,5-difluoro-4-((6S,8R)-7-(2-fluoro-2-methylpropyl)-8-methyl-6,7,8,9-tetrahydro-3H-pyrazolo[4,3-f]isoquinolin-6-yl)-N-(2-(3-(fluoromethyl)azetidin-1-yl)ethyl)aniline]",8
0.088,,"C[C@@H]1Cc2c(ccc3[nH]ncc23)[C@@](C)(c2c(F)cc(OCCN3CC(CF)C3)cc2F)N1CC(C)(C)F [Example 2, (6S,8R)-6-(2,6-difluoro-4-(2-(3-(fluoromethyl)azetidin-1-yl)ethoxy)phenyl)-7-(2-fluoro-2-methylpropyl)-6,8-dimethyl-6,7,8,9-tetrahydro-3H-pyrazolo[4,3-f]isoquinoline]",8
0.076,,"C[C@@H]1Cc2c(ccc3[nH]ncc23)[C@@](C)(c2ccc(OCCN3CC(CF)C3)cc2)N1CC1(F)COC1 [Example 32, (6R,8R)-6-(4-(2-(3-(fluoromethyl)azetidin-1-yl)ethoxy)phenyl)-7-((3-fluorooxetan-3-yl)methyl)-6,8-dimethyl-6,7,8,9-tetrahydro-3H-pyrazolo[4,3-f]isoquinoline]",29
0.16,,"CC(C)(F)CN1[C@H](c2c(F)cc(OCCN3CC(CF)C3)cc2F)c2ccc3[nH]ncc3c2C[C@H]1C(F)F [Example 3, (6S,8S)-6-(2,6-difluoro-4-(2-(3-(fluoromethyl)azetidin-1-yl)ethoxy)phenyl)-8-(difluoromethyl)-7-(2-fluoro-2-methylpropyl)-6,7,8,9-tetrahydro-3H-pyrazolo[4,3-f]isoquinoline]",16
,<50,"COc1cc(OCCN2CC(OC)C2)ccc1[C@@H]1c2ccc3[nH]ncc3c2C[C@@H](C)N1CC(C)(C)F [Example 24, (6S,8R)-7-(2-fluoro-2-methylpropyl)-6-(2-methoxy-4-(2-(3-methoxyazetidin-1-yl)ethoxy)phenyl)-8-methyl-6,7,8,9-tetrahydro-3H-pyrazolo[4,3-f]isoquinoline]",
0.35,,"C[C@@H]1Cc2c(ccc3[nH]ncc23)[C@@H](c2ccc(OCCN3CC(CF)C3)cc2)N1CC1(F)CC1 [Example 29, (6R,8R)-7-((1-fluorocyclopropyl)methyl)-6-(4-(2-(3-(fluoromethyl)azetidin-1-yl)ethoxy)phenyl)-8-methyl-6,7,8,9-tetrahydro-3H-pyrazolo[4,3-f]isoquinoline]",12
0.087,,"C[C@@H]1Cc2c(ccc3[nH]ncc23)[C@@](C)(c2ccc(OCCN3CC(CF)C3)cc2)N1CC1(F)CC1 [Example 30, (6R,8R)-7-((1-fluorocyclopropyl)methyl)-6-(4-(2-(3-(fluoromethyl)azetidin-1-yl)ethoxy)phenyl)-6,8-dimethyl-6,7,8,9-tetrahydro-3H-pyrazolo[4,3-f]isoquinoline]",13
0.16,80,"CC(C)(F)CN1[C@H](C(F)F)Cc2c(ccc3[nH]ncc23)[C@@]1(C)c1c(F)cc(OCCN2CC(CF)C2)cc1F [Example 4, (6S,8S)-6-(2,6-difluoro-4-(2-(3-(fluoromethyl)azetidin-1-yl)ethoxy)phenyl)-8-(difluoromethyl)-7-(2-fluoro-2-methylpropyl)-6-methyl-6,7,8,9-tetrahydro-3H-pyrazolo[4,3-f]isoquinoline]",10
0.15,,"COc1cc(OCCN2CC(CF)C2)ccc1[C@@H]1c2ccc3[nH]ncc3c2C[C@@H](C)N1CC(F)(F)CO [Example 14, 2,2-difluoro-3-((6S,8R)-6-(4-(2-(3-(fluoromethyl)azetidin-1-yl)ethoxy)-2-methoxyphenyl)-8-methyl-3,6,8,9-tetrahydro-7H-pyrazolo[4,3-f]isoquinolin-7-yl)propan-1-ol]",
0.059,,"COc1cc(OCCN2CC(CF)C2)cc(F)c1[C@@H]1c2ccc3[nH]ncc3c2C[C@@H](C)N1CC(F)(F)CF [Example 27, (6S,8R)-6-(2-fluoro-4-(2-(3-(fluoromethyl)azetidin-1-yl)ethoxy)-6-methoxyphenyl)-8-methyl-7-(2,2,3-trifluoropropyl)-6,7,8,9-tetrahydro-3H-pyrazolo[4,3-f]isoquinoline]",
0.036,,"COc1cc(OCCN2CC(CF)C2)ccc1[C@@H]1c2ccc3[nH]ncc3c2C[C@@H](C)N1CC(C)(F)F [Example 11, (6S,8R)-7-(2,2-difluoropropyl)-6-(4-(2-(3-(fluoromethyl)azetidin-1-yl)ethoxy)-2-methoxyphenyl)-8-methyl-6,7,8,9-tetrahydro-3H-pyrazolo[4,3-f]isoquinoline]",

Compound,DC50 [1] [nM],% downregulation (in brackets) in ER down regulation assay [1] [%],hepatocyte CLint at 1 µM [2] [µL/min/1e6 cells]
"CC(C)CN1[C@H](c2c(F)cc(OCCN3CC(CF)C3)cc2F)c2ccc3[nH]ncc3c2C[C@H]1C [Example 33, (6S,8R)-6-(2,6-difluoro-4-(2-(3-(fluoromethyl)azetidin-1-yl)ethoxy)phenyl)-7-isobutyl-8-methyl-6,7,8,9-tetrahydro-3H-pyrazolo[4,3-f]isoquinoline]",0.21,,9
"CC(C)CN1[C@H](c2ccc(OCCN3CC(CF)C3)cc2)c2ccc3[nH]ncc3c2C[C@H]1C [Example 28, (6R,8R)-6-(4-(2-(3-(fluoromethyl)azetidin-1-yl)ethoxy)phenyl)-7-isobutyl-8-methyl-6,7,8,9-tetrahydro-3H-pyrazolo[4,3-f]isoquinoline]",0.14,,8
